Values of other authors as cited in PubChem BioAssay AID1259409 (Chemical Carcinogenesis Research Information System (CCRIS), 2018).

System: rodent chemically induced tumor inhibition, incidence and multiplicity
Assay: CCRIS tumor inhibitor studies

NCCCC(N)(C(=O)O)C(F)F (stereo not drawn)
tumour outcome (control, treated, inhibition, significance) (Carcinogen: 1,2-DIMETHYLHYDRAZINE, 540-73-8, Dose [Inhibitor]: 0, 0.2% IN DRINKING WATER BEGINNING 1 D PRIOR TO CARCINOGEN TREATMENT AND CONTINUING FOR DURATION OF STUDY (STUDY DURATI, Route [Inhibitor]: ORAL, Species: RAT, Strain/Sex: SPRAGUE-DAWLEY/MALE, Target Tissue: Type of Lesion: DISTAL COLON: ADENOCARCINOMA, Dose [Carcinogen]: 20 MG/KG 1/WK FOR 20 WK, Promoter: NONE USED): 94%, 67%, 29%, p<0.01 | tumour outcome (control, treated, inhibition, significance) (Carcinogen: 7,12-DIMETHYLBENZ[A]ANTHRACENE, 57-97-6, Dose [Inhibitor]: 0.3 MG IN 0.2 ML ACETONE:ETHANOL:WATER (2:1:1, V/V) 1 HR AFTER EACH PROMOTER DOSE FOR 20 WK (STUDY DURATION: 20 WK), Route [Inhibitor]: DERMAL, Species: MOUSE, Strain/Sex: CD-1/FEMALE, Target Tissue: Type of Lesion: SKIN: PAPILLOMA, Dose [Carcinogen]: 0.2 UMOL IN 0.2 ML ACETONE ONCE, Promoter: 12-O-TETRADECANOYLPHORBOL-13-ACETATE, 16561-29-8): 97%, 61%, 37%, not calculated | tumour outcome (control, treated, inhibition, significance) (Carcinogen: 7,12-DIMETHYLBENZ[A]ANTHRACENE, 57-97-6, Dose [Inhibitor]: 0.3 MG IN 0.2 ML ACETONE:ETHANOL:WATER (2:1:1,V/V) 1 HR AFTER EACH PROMOTER DOSE FOR 20 WK (STUDY DURATION: 20 WK), Route [Inhibitor]: DERMAL, Species: MOUSE, Strain/Sex: CD-1/FEMALE, Target Tissue: Type of Lesion: SKIN: PAPILLOMA, Dose [Carcinogen]: 0.2 UMOL IN 0.2 ML ACETONE ONCE, Promoter: 12-O-TETRADECANOYLPHORBOL-13-ACETATE, 16561-29-8): 84%, 63%, 25%, not calculated | tumour outcome (control, treated, inhibition, significance) (Carcinogen: 7,12-DIMETHYLBENZ[A]ANTHRACENE, 57-97-6, Dose [Inhibitor]: 1% (W/V) IN DRINKING WATER 2 D PRIOR TO 1ST PROMOTER DOSE UNTIL THE END OF EXPERIMENT (STUDY DURATION: 20 WK), Route [Inhibitor]: ORAL, Species: MOUSE, Strain/Sex: CD-1/FEMALE, Target Tissue: Type of Lesion: SKIN: PAPILLOMA, Dose [Carcinogen]: 0.2 UMOL IN 0.2 ML ACETONE ONCE, Promoter: 12-O-TETRADECANOYLPHORBOL-13-ACETATE, 16561-29-8): 100%, 43%, 57%, not calculated | tumour outcome (control, treated, inhibition, significance) (Carcinogen: 7,12-DIMETHYLBENZ[A]ANTHRACENE, 57-97-6, Dose [Inhibitor]: 2% IN DRINKING WATER (AVERAGE DAILY INTAKE: 8.53 ML/MOUSE/D) FOR 18 WK (STUDY DURATION: 18 WK), Route [Inhibitor]: ORAL, Species: MOUSE, Strain/Sex: SENCAR/FEMALE, Target Tissue: Type of Lesion: SKIN: PAPILLOMA, Dose [Carcinogen]: 10 NMOL ONCE AT 7 WK OF AGE, Promoter: 12-O-TETRADECANOYLPHORBOL-13-ACETATE, 16561-29-8): 92%, 81%, 12%, not calculated | tumour outcome (control, treated, inhibition, significance) (Carcinogen: 7,12-DIMETHYLBENZ[A]ANTHRACENE, 57-97-6, Dose [Inhibitor]: 3 MG IN 0.2 ML ACETONE:ETHANOL:WATER (2:1:1, V/V) 1 HR AFTER EACH PROMOTER DOSE FOR 20 WK (STUDY DURATION: 20 WK), Route [Inhibitor]: DERMAL, Species: MOUSE, Strain/Sex: CD-1/FEMALE, Target Tissue: Type of Lesion: SKIN: PAPILLOMA, Dose [Carcinogen]: 0.2 UMOL IN 0.2 ML ACETONE ONCE, Promoter: 12-O-TETRADECANOYLPHORBOL-13-ACETATE, 16561-29-8): 68%, 47%, 31%, not calculated | tumour outcome (control, treated, inhibition, significance) (Carcinogen: 7,12-DIMETHYLBENZ[A]ANTHRACENE, 57-97-6, Dose [Inhibitor]: 5 MG, 2 HR PRIOR TO EACH BIWEEKLY PROMOTER DOSE FOR 18 WK (STUDY DURATION: 18 WK), Route [Inhibitor]: INTRAPERITONEAL, Species: MOUSE, Strain/Sex: SENCAR/FEMALE, Target Tissue: Type of Lesion: SKIN: PAPILLOMA, Dose [Carcinogen]: 10 NMOL AT 7 WK OF AGE ONCE 18 WK, Promoter: 12-O-TETRADECANOYLPHORBOL-13-ACETATE, 16561-29-8): 92%, 77%, 16%, not calculated | tumour outcome (control, treated, inhibition, significance) (Carcinogen: 7,12-DIMETHYLBENZ[A]ANTHRACENE, 57-97-6, Dose [Inhibitor]: 6 MG IN 0.9% NACL 1 HR AFTER EACH PROMOTER DOSE (STUDY DURATION: 20 WK), Route [Inhibitor]: INTRAPERITONEAL, Species: MOUSE, Strain/Sex: CD-1/FEMALE, Target Tissue: Type of Lesion: SKIN: PAPILLOMA, Dose [Carcinogen]: 0.2 UMOL IN 0.2 ML ACETONE ONCE, Promoter: 12-O-TETRADECANOYLPHORBOL-13-ACETATE, 16561-29-8): 83%, 63%, 24%, not calculated | tumour outcome (control, treated, inhibition, significance) (Carcinogen: 7,12-DIMETHYLBENZ[A]ANTHRACENE, 57-97-6, Dose [Inhibitor]: 18 MG IN 0.9% NACL 1 HR AFTER EACH PROMOTER DOSE (STUDY DURATION: 20 WK), Route [Inhibitor]: INTRAPERITONEAL, Species: MOUSE, Strain/Sex: CD-1/FEMALE, Target Tissue: Type of Lesion: SKIN: PAPILLOMA, Dose [Carcinogen]: 0.2 UMOL IN 0.2 ML ACETONE ONCE, Promoter: 12-O-TETRADECANOYLPHORBOL-13-ACETATE, 16561-29-8): 83%, 60%, 28%, not calculated | tumour outcome (control, treated, inhibition, significance) (Carcinogen: 7,12-DIMETHYLBENZ[A]ANTHRACENE, 57-97-6, Dose [Inhibitor]: 20 MG 2/WK OR 16 WK TOGETHER WITH EACH MEZEREIN TREATMENT BEGINNING 3 WK POST CARCINOGEN DOSE (STUDY DURATION: 18 WK), Route [Inhibitor]: INTRAPERITONEAL, Species: MOUSE, Strain/Sex: SENCAR/FEMALE, Target Tissue: Type of Lesion: SKIN: PAPILLOMA, Dose [Carcinogen]: 10 NMOL ONCE FOLLOWED ONE WK LATER BY PROMOTER, Promoter: 12-O-TETRADECANOYLPHORBOL-13-ACETATE, 16561-29-8, MEZERIN, 34807-41-5, Promoter: 12-O-TETRADECANOYLPHORBOL-13-ACETATE, 16561-29-8, MEZERIN, 34807-41-5): 78%, 45%, 42%, not calculated | tumour outcome (control, treated, inhibition, significance) (Carcinogen: 7,12-DIMETHYLBENZ[A]ANTHRACENE, 57-97-6, Dose [Inhibitor]: 20 MG 2/WK TOGETHER WITH EACH PROMOTER TREATMENT BEGINNING 1 WK POST CARCINOGEN DOSE (STUDY DURATION: 18 WK), Route [Inhibitor]: INTRAPERITONEAL, Species: MOUSE, Strain/Sex: SENCAR/FEMALE, Target Tissue: Type of Lesion: SKIN: PAPILLOMA, Dose [Carcinogen]: 10 NMOL ONCE, Promoter: 12-O-TETRADECANOYLPHORBOL-13-ACETATE, 16561-29-8, MEZERIN, 34807-41-5, Promoter: 12-O-TETRADECANOYLPHORBOL-13-ACETATE, 16561-29-8, MEZERIN, 34807-41-5): 78%, 78%, 0%, not significant | tumour outcome (control, treated, inhibition, significance) (Carcinogen: 7,12-DIMETHYLBENZ[A]ANTHRACENE, 57-97-6, Dose [Inhibitor]: 20 MG 2 HR PRIOR TO EACH BIWEEKLY PROMOTER DOSE FOR 18 WK (STUDY DURATION: 18 WK), Route [Inhibitor]: INTRAPERITONEAL, Species: MOUSE, Strain/Sex: SENCAR/FEMALE, Target Tissue: Type of Lesion: SKIN: PAPILLOMA, Dose [Carcinogen]: 10 NMOL ONCE AT 7 WK OF AGE, Promoter: 12-O-TETRADECANOYLPHORBOL-13-ACETATE, 16561-29-8): 92%, 84%, 9%, not calculated | tumour outcome (control, treated, inhibition, significance) (Carcinogen: BETA IRRADIATION, Dose [Inhibitor]: 0, 1% IN DRINKING WATER DURING IRRADIATION EXPOSURE (STUDY DURATION: 950 D), Route [Inhibitor]: ORAL, Species: MOUSE, Strain/Sex: ICR/FEMALE, Target Tissue: Type of Lesion: SKIN: TUMOR, Dose [Carcinogen]: 3 GY/MIN 3/WK UNTIL EMERGENCE OF TUMORS, Promoter: NONE USED): 100%, 100%, 0%, not significant
